Tests used:
[1] = system: NCI/ADR-RES drug resistant ovarian cancer xenografts; test: Efficacy in NCI/ADR-RES xenografts; type: in vivo, mouse; conditions: doxorubicin 2.0 mg/kg iv, terminated after the third dose
[2] = system: NCI/ADR-RES ovarian cancer cell; conditions: overexpresses p-gp; cited from earlier work
[3] = aqueous buffer; cited from earlier work

COc1cccc2c1C(=O)c1c(O)c3c(c(O)c1C2=O)C[C@@](O)(C(=O)CO)C[C@@H]3O[C@H]1C[C@H](N)[C@H](O)[C@H](C)O1 [dox, Doxorubicin]
body weight loss [1]: more than 20% | effectiveness in drug-resistant cells [2]: not effective

COc1cccc2c1C(=O)c1c(O)c3c(c(O)c1C2=O)C[C@@](O)(C(=O)CO)C[C@@H]3O[C@H]1C[C@@H]2NCO[C@@H]2[C@H](C)O1 [doxaz, Doxazolidine]
half-life of hydrolysis to dox [3]: 3 min | effectiveness in drug-resistant cells [2]: effective

CC(=O)O[C@H]1C(=O)[C@@]2(C)[C@H]([C@H](OC(=O)c3ccccc3)[C@]3(O)C[C@H](OC(=O)[C@H](O)[C@@H](NC(=O)c4ccccc4)c4ccccc4)C(C)=C1C3(C)C)[C@]1(OC(C)=O)CO[C@@H]1C[C@@H]2O [paclitaxel]
effectiveness in drug-resistant cells [2]: not effective

From paper PMC12879253 (Molecular pharmaceutics, 2025)
